Series [1] deals with α-Glucosidase from Saccharomyces cervisiae. Type of series: biochemical. The settings on record: in vitro; phosphate buffer pH 6.8, 37° C., substrate 0.7 mM, absorbance at 400 nm; read-out: α-Glucosidase Inhibition (IC50 in μM). As for the experimental part:
Assay Protocol for α-Glucosidase Inhibition (In Vitro α-Glucosidase Inhibition Assay)
α-Glucosidase inhibition assay was performed spectrophotometrically. α-Glucosidase from Saccharomyces cervisiae was dissolved in phosphate buffer (pH 6.8, 50 mM). Test compounds were dissolved in 70% DMSO. In 96-well plates, 20 μL of test sample, 20 μL of enzyme and 135 μL of buffer were added and incubated for 15 minutes at 37° C. After incubation, 25 μL, of p-nitrophenyl-α-D-glucopyranoside (0.7 mM, Sigma Aldrich) was added and the change in absorbance was monitored for 30 minutes at 400 nm. Test compound was replaced by DMSO (7.5% final) as control. Acarbose (Acarbose, Sigma Aldrich) was used as a standard inhibitor.

The results in this text go back to patent US9802894B2, “α-glucosidase inhibitors” (priority 2015, dated 2017).

What is called melting point is the temperature, or range, at which the solid turns liquid. A word on the IC50: it is the concentration that inhibits the measured activity by half.

The molecule `Cc1cc(C)c([C@H](CC(=O)c2ccccc2)c2c[nH]c3ccccc23)c(C)c1` [Compound 3c, (S)-3-(1H-Indol-3-yl)-3-mesityl-1-phenylpropan-1-one] registered a melting point of 169 to 171 °C. The IC50 in series [1] amounted to 25.2 ± 1.96 µM. In the same order, the values of `Cc1ccc([C@H](CC(=O)c2ccccc2)c2c[nH]c3ccccc23)cc1` [Compound 3d, (S)-3-(1H-Indol-3-yl)-1-phenyl-3-(p-tolyl)propan-1-one] are 153 to 155 °C and 24 ± 4 µM. In the same order, the values of `O=C(C[C@@H](c1ccc(Cl)cc1)c1c[nH]c2ccccc12)c1ccccc1` [Compound 3h, (S)-3-(4-Chlorophenyl)-3-(1H-indol-3-yl)-1-phenylpropan-1-one] are 189 to 192 °C and 37.9 ± 0.86 µM. `COc1ccc([C@H](CC(=O)c2ccccc2)c2c[nH]c3ccccc23)cc1` [Compound 3e, (S)-3-(1H-Indol-3-yl)-3-(4-methoxyphenyl)-1-phenylpropan-1-one] registered a melting point of 134 to 136 °C. Also, the IC50 in series [1] came to 27.1 ± 0.69 µM.

The molecule `O=C(C[C@@H](c1ccccc1)c1c[nH]c2ccccc12)c1ccc2ccccc2c1` [Compound 3g, (S)-3-(1H-Indol-3-yl)-1-(naphthalen-2-yl)-3-phenylpropan-1-one] gave a melting point of 166 to 169 °C. Besides, the IC50 in series [1] turned out to be 43.9 ± 0.51 µM.

For `Cc1cccc(C(CC(=O)c2ccccc2)c2c[nH]c3ccccc23)c1` (stereo not shown) [Compound 3n, 3-(1H-indol-3-yl)-1-phenyl-3-(m-tolyl)propan-1-one], the melting point was in the range of 130 to 132 °C. In addition, the IC50 in series [1] was 26.3 ± 0.48 µM. In the same order, the values of `O=C(C[C@@H](c1cccs1)c1c[nH]c2ccccc12)c1ccccc1` [Compound 3k, (R)-3-(1H-Indol-3-yl)-1-phenyl-3-(thiophen-2-yl)propan-1-one] are 112 to 115 °C and 21.8 ± 0.25 µM. For `O=C(CC(c1cccc([N+](=O)[O-])c1)c1c[nH]c2ccccc12)c1ccccc1` (stereo not shown) [Compound 3p, 3-(1H-indol-3-yl)-3-(3-nitrophenyl)-1-phenylpropan-1-one] the same measures were 105 to 107 °C and 34.6 ± 1.55 µM. In the case of `O=C(CC(c1cccs1)c1c[nH]c2ccccc12)c1ccc2ccccc2c1` (stereo not shown) [Compound 3o, 3-(1H-indol-3-yl)-1-(naphthalen-2-yl)-3-(thiophen-2-yl)propan-1-one], the IC50 in series [1] stood at 11.8 ± 0.06 µM. Consider `O=C(CC(c1ccc(Br)cc1)c1c[nH]c2ccccc12)c1ccccc1` (stereo not shown) [Compound 3q, 3-(4-bromophenyl)-3-(1H-indol-3-yl)-1-phenylpropan-1-one], for which the melting point was in the range of 95 to 97 °C. For the same molecule, the IC50 in series [1] came to 24.9 ± 1.61 µM. In the same order, the values of `Cc1ccc([C@H](CC(=O)c2ccc3ccccc3c2)c2c[nH]c3ccccc23)cc1` [Compound 3j, (S)-3-(1H-Indol-3-yl)-1-(naphthalen-2-yl)-3-(p-tolyl)propan-1-one] are 174 to 177 °C and 18.1 ± 1.9 µM. `Cc1cc(C)c([C@H](CC(=O)c2ccc3ccccc3c2)c2c[nH]c3ccccc23)c(C)c1` [Compound 3i, (S)-3-(1H-Indol-3-yl)-3-mesityl-1-(naphthalen-2-yl)propan-1-one] gave a melting point of 227 to 229 °C. Further, the IC50 in series [1] was found to be 15.1 ± 0.4 µM.

As for `O=C(CC(c1c(Cl)cccc1Cl)c1c[nH]c2ccccc12)c1ccccc1` (stereo not shown) [Compound 3m, 3-(2,6-dichlorophenyl)-3-(1H-indol-3-yl)-1-phenylpropan-1-one], the melting point lay within 119 to 121 °C. Moreover, the IC50 in series [1] stood at 4.3 ± 0.13 µM. For `O=C(CC(c1cccc(Br)c1)c1c[nH]c2ccccc12)c1ccccc1` (stereo not shown) [Compound 3r, 3-(3-bromophenyl)-3-(1H-indol-3-yl)-1-phenylpropan-1-one] the same measures were 102 to 104 °C and 33.2 ± 0.75 µM. In the same order, the values of `O=C(CC(c1ccc(Cl)cc1Cl)c1c[nH]c2ccccc12)c1ccccc1` (stereo not shown) [Compound 3l, 3-(2,4-dichlorophenyl)-3-(1H-indol-3-yl)-1-phenylpropan-1-one] are 110 to 112 °C and 15.6 ± 0.17 µM. For `O=C(C[C@@H](c1ccc(Cl)cc1)c1c[nH]c2ccccc12)c1ccc2ccccc2c1` [Compound 3b, (S)-3-(4-Chlorophenyl)-3-(1H-indol-3-yl)-1-(naphthalen-2-yl)propan-1-one] the same measures were 237 to 241 °C and 17.6 ± 0.98 µM.

On to `COc1ccc([C@H](CC(=O)c2ccc3ccccc3c2)c2c[nH]c3ccccc23)cc1` [Compound 3f, (S)-3-(1H-Indol-3-yl)-3-(4-methoxyphenyl)-1-(naphthalen-2-yl)propan-1-one], for which the melting point is 159 to 162 °C. Further, the IC50 in series [1] came out at 15.2 ± 0.58 µM. In the case of `O=C(C[C@@H](c1ccccc1)c1c[nH]c2ccccc12)c1ccccc1` [Compound 3a, (S)-3 (1H-Indol-3-yl)-1,3-diphenylpropan-1-one], the IC50 in series [1] is 43.3 ± 0.92 µM.
